{
  "source": "patent US20120065126A1",
  "about": "“Pharmaceutical Compositions Containing Antifungal Peptides” (BASF SE, priority 2009, published 2012)",
  "key": {"[1]": {"system": "M. furfur (DSM 6170)", "assay": "P18 in pharmaceutical base formulation (CFU)", "format": "cell-based, Malassezia furfur", "conditions": "for Colony forming units after the incubation time specified: 10 000 ppm in the formulation, mixed 1:9 with suspension", "protocol": "The aim of the experiment was to study the effect of a pharmaceutical base formulation containing the P18 peptide ingredient (P18 sequence H-KWKLFKKIPKFLHLAKKF-NH2 (Bachem AG, Switzerland)) on further fungi and bacteria. For this purpose, the following base formulation was used: […]\n1% hydroxycellulose 10% propylene glycol made up with water.\nBased on the base formulation, formulations containing 10 000 ppm of P18 peptide were prepared from a 20% concentrate solution.\nThe effect of the formulations on S. epidermidis (DSM 1798), M. furfur (DSM 6170) and T. rubrum (DSM 21146) was studied.\nM472 growth medium according to DSMZ for M. furfur 40 g of malt extract (Becton, Dickinson and Company, Sparks, USA) 20 g of ox bile (Merck, Darmstadt, Germany)\nFor M. furfur, 5 ml of medium were inoculated with the microorganism and incubated at 30° C. and 200 rpm overnight.\n1.5 ml reaction vessels were each filled with 1 ml of medium and inoculated with the fungal or bacterial suspension from the overnight culture such that the resulting suspensions at the start of the experiment had been adjusted to an optical density, measured at 600 nm, of 0.1. The resulting suspension was mixed with the formulations in a ratio of 1:9 (formulation: microbial suspension). 1 μl of the culture was diluted with 20 μl of medium after 5 minutes and 60 minutes and then plated out. After incubation over 24 hours, the colonies on the plates were counted."}, "[2]": {"system": "Malassezia furfur strain DSM 6170", "assay": "Long-term stability of P18 solution, growth test (CFU)", "format": "cell-based", "protocol": "(§1) The studies described hereinafter were conducted on the Malassezia furfur strain DSM 6170.\nSince storage may be necessary over a prolonged period, a 1 mM P18 peptide solution (P18 sequence H-KWKLFKKIPKFLHLAKKF-NH2) was subsequently stored at 37° C. over 12 weeks, and the antifungal activity of the stored solution on Malassezia furfur was compared with the activity of a freshly made up 1 mM P18 peptide solution. This was done using a growth test, which was conducted as follows:\nGrowth medium: M472 Pityrosporum medium according to DSMZ 40 g/1 malt extract 20 g/l ox bile\n(§2) The growth test was effected as follows: a shake culture containing M472 Pityrosporum medium was inoculated with M. furfur and incubated with shaking at 30° C. and 200 rpm overnight.\nA 96-well microtiter plate was filled with 100 μl per well of M472 Pityrosporum medium and inoculated with M. furfur suspension from the overnight culture. The M. furfur suspension was adjusted at the start of the experiment to an optical density, measured at 600 nm, of 0.02. The concentrates of the inhibitor solutions were 1 mM in water.\nThe following growth was compared: • M. furfur suspension without addition of an inhibitor • M. furfur suspension and addition of an aqueous fresh P18 solution with a final concentration of 50 μM • M. furfur suspension and addition of an aqueous fresh P18 solution with a final concentration of 25 μM • M. furfur suspension and addition of a P18 solution which had been stored at 37° C. for 12 weeks with a final concentration of 50 μM • M. furfur suspension and addition of a P18 solution which had been stored at 37° C. for 12 weeks with a final concentration of 25 μM\nThe microtiter plate was incubated with shaking at 30° C.\nThe growth was observed by measuring the optical density over 24 hours. Subsequently, the colony forming units (CFU) were determined by streaking 1 μl and 5 μl of each of the suspensions and, after incubation over 6 days, counting the colonies. The CFU was determined in order to rule out any influence of the biphasic medium, and also the growth form of M. furfur, on the optical density. The experiments were conducted at least in triple determinations."}, "[3]": {"system": "M. furfur", "assay": "Kinetics of the effect of P18 in the presence of a shampoo base formulation (CFU)", "format": "cell-based, Malassezia furfur", "conditions": "10% (v/v) shampoo base formulation 31-3; 0.23-2.3 g/l; 5 min to 24 h", "protocol": "The experiments were conducted as follows: [table] The Texapon NSO and Tego Betain L7 components were mixed and dissolved. NaOH was used to adjust the pH to pH 6-7. The growth test was effected as follows: a shake culture containing […]. furfur and incubated with shaking at 30° C. and 200 rpm overnight. A 96-well microtiter plate was filled with 100 μl per well of […]. furfur suspension from the overnight culture. The M. furfur suspension was adjusted at the start of the experiment to an optical density, measured at 600 nm, of 0.1. 10% (v/v) of shampoo base formulation 31-3 was added to the M. furfur suspension. P18 peptide was dissolved with a concentration of 230 g/l in water. […] The microtiter plate was incubated with shaking at 30°."}, "[4]": {"system": "M. furfur", "assay": "Effect of P18 variants (CFU)", "format": "cell-based, Malassezia furfur", "conditions": "50 μM peptide, with DMSO; 24 h", "protocol": "as §1\nThe inhibitory effect of the following P18 variants on M. furfur was studied:\nas §2\nA 96-well microtiter plate was filled with 100 μl per well of M472 Pityrosporum medium and inoculated with M. furfur suspension from the overnight culture. The M. furfur suspension was adjusted at the start of the experiment to an optical density, measured at 600 nm, of 0.1.\nThe peptide variants were dissolved with a final concentration of 1 mM in dimethyl sulfoxide (DMSO). It is also possible to dispense with DMSO and to use a purely aqueous peptide solution. 5 μl of this solution were added to 100 μl of M. furfur suspension (final concentration of the P18 peptide 50 μM). In a control mixture, the same amount of DMSO without P18 peptide was added.\nThe microtiter plate was incubated with shaking at 30°.\nAfter 24 h, the colony forming units (CFU) were determined by streaking 10 μl of each of the suspensions and, after incubation over the course of 6 days, counting the colonies. Two independent experiments each with three identical mixtures were conducted, and the number of colony forming units was averaged."}},
  "data": [
    {"substance": "H-KWKLFKKIPKFLHLAKKF-NH2 [P18, H-KWKLFKKIPKFLHLAKKF-NH2]", "values": [
      {"measurement": "Colony forming units after the incubation time specified", "setting": "[1]; 5 minutes", "result": "671 ± 13", "unit": "CFU"},
      {"measurement": "Colony forming units after the incubation time specified", "setting": "[1]; 60 minutes", "result": "2 ± 2", "unit": "CFU"},
      {"measurement": "Reduction in the cell count", "setting": "[1]; treatment with a formulation which comprised P18, highest reduction of Example 22", "result": "> 300", "unit": "fold"},
      {"measurement": "Effect of storage on the activity of the solution", "setting": "[2]; 1 mM P18 peptide solution, 37° C., 12 weeks", "result": "has not affected the activity"},
      {"measurement": "Colony forming units (CFU)", "setting": "[2]; aqueous P18 solution (fresh), final conc. 25 μM, incubation 16-18 h", "result": "5 ± 8", "unit": "CFU"},
      {"measurement": "Colony forming units (CFU)", "setting": "[2]; aqueous P18 solution (fresh), final conc. 25 μM, incubation 24 h", "result": "1 ± 2", "unit": "CFU"},
      {"measurement": "Colony forming units (CFU)", "setting": "[2]; aqueous P18 solution (fresh), final conc. 50 μM, incubation 16-18 h", "result": "0 ± 0", "unit": "CFU"},
      {"measurement": "Colony forming units (CFU)", "setting": "[2]; aqueous P18 solution (fresh), final conc. 50 μM, incubation 24 h", "result": "1 ± 1", "unit": "CFU"},
      {"measurement": "Colony forming units (CFU)", "setting": "[2]; aqueous P18 solution stored at 37° C. for 12 weeks, final conc. 25 μM, incubation 16-18 h", "result": "6 ± 7", "unit": "CFU"},
      {"measurement": "Colony forming units (CFU)", "setting": "[2]; aqueous P18 solution stored at 37° C. for 12 weeks, final conc. 25 μM, incubation 24 h", "result": "5 ± 5", "unit": "CFU"},
      {"measurement": "Colony forming units (CFU)", "setting": "[2]; aqueous P18 solution stored at 37° C. for 12 weeks, final conc. 50 μM, incubation 16-18 h", "result": "0 ± 0", "unit": "CFU"},
      {"measurement": "Colony forming units (CFU)", "setting": "[2]; aqueous P18 solution stored at 37° C. for 12 weeks, final conc. 50 μM, incubation 24 h", "result": "1 ± 1", "unit": "CFU"},
      {"measurement": "Effect compared with zinc pyrithione and climbazole at different contact times", "setting": "[3]", "result": "better properties than zinc pyrithione or climbazole"},
      {"measurement": "Averaged number of colony forming units (CFU)", "setting": "[4]", "result": 0, "unit": "CFU"}
    ]}
  ]
}
